Measured values reported in US8604059B2, “Thioxanthene derivatives for the treatment of infectious diseases” (BKG Pharma APS, priority 2009, dated 2013).
Where “and” joins values, the source holds several entries; their conditions need not be identical. Equal entries are not always repeated.

Key:
[1] = test system: Enterococcus faecalis ENT 28 (VRE); test: Mouse peritonitis model, neutropenic NMRI mice, enhancing effect with linezolid; format: in vivo
Protocol: A multiresistant clinical isolate of Enterococcus faecalis ENT 28 (VRE) from human urine was used.
Female NMRI mice (age, approximately 6 to 8 weeks; weight, 30±2 g) were used for the mouse […] peritonitis model (as described below).
In order to detect any synergistic effect, infected mice were treated with sub-therapeutic doses of each test compound alone or a mixture of the two compounds.
Bacterial suspensions were prepared from fresh overnight cultures (made from frozen stock cultures) on 5% blood agar plates as described above. The inoculum for the mouse peritonitis model was prepared immediately before use and was adjusted at 540 nm of giving a density of approximately 10^7 CFU/ml. The size of the inoculum was determined by viability counting on 5% blood agar.
Neutropenia was introduced by pretreating the mice with cyclophosphamide (6 mg daily for three days). […] Antibiotic therapy was initiated just after inoculation. Linezolid and compound 3 was administered subcutaneously in the neck region in a volume of 0.5 ml per dose. 3 mice were in each treatment group. Inoculated untreated control mice were included in all trials. (Method reference: Erlandsdottir et al; Antimicrob Agents Chemother. 2001 April; 45(4):1078-85)
The effects of the various treatment regimens were determined during 5 h of treatment by evaluation of bacterial counts in the peritoneal fluid. After the mice were killed, peritoneal washes were performed by injecting 2 ml of sterile saline intraperitoneally, followed by massage of the abdomen and then opening of the peritoneum to collect the fluid. Peritoneal fluids were immediately diluted 10-fold in saline, from which 20 μl was plated onto 5% blood agar plates in spots, with subsequent counting of colonies after incubation overnight at 35° C. The lowest detection levels for bacterial counts in blood and peritoneal fluid were 50 and 250 CFU/ml, respectively.

[2] = test system: Multiresistant clinical isolates E. coli; test: Maximal reversal of resistance and synergistic effect (Table 4c); format: cell-based; details: for Fold enhanced, compound 1 1.0 ug/ml: enhancement of antibiotic by compound 1 at 1.0 ug/ml; for Fold enhanced, compound 2 2.0 ug/ml: enhancement of antibiotic by compound 2 at 2.0 ug/ml; for Fold enhanced, compound 3 0.6 ug/ml: enhancement of antibiotic by compound 3 at 0.6 ug/ml; for MIC plus compound 1 1.0 ug/ml: MIC of antibiotic in presence of compound 1 at 1.0 ug/ml; for MIC plus compound 2 2.0 ug/ml: MIC of antibiotic in presence of compound 2 at 2.0 ug/ml; for MIC plus compound 3 0.6 ug/ml: MIC of antibiotic in presence of compound 3 at 0.6 ug/ml
Protocol: (§1) The maximal obtained reversal of resistance and synergistic effect was tested as previously described.
Strains: Multiresistant clinical isolates E. coli, Ten strains in each group.

[3] = test system: Multiresistant clinical isolates of S. aureus and S. epidermidis; test: Maximal reversal of resistance and synergistic effect (Table 4b); format: cell-based; details: for MIC plus compound 1 0.60 ug/ml: MIC of antibiotic in presence of compound 1 at 0.60 ug/ml; for MIC plus compound 1 0.60 ug/ml / MIC compound 2 0.98 ug/ml / MIC plus compound 3 0.30 ug/ml / MIC plus compound 4 0.75 ug/ml / MIC alone: median; for MIC compound 2 0.98 ug/ml: MIC of antibiotic in presence of compound 2 at 0.98 ug/ml; for MIC plus compound 3 0.30 ug/ml: MIC of antibiotic in presence of compound 3 at 0.30 ug/ml; for MIC plus compound 4 0.75 ug/ml: MIC of antibiotic in presence of compound 4 at 0.75 ug/ml; for MIC alone: antibiotic alone, ten strains in each group; for Fold enhanced, compound 1 0.60 ug/ml: enhancement of antibiotic by compound 1 at 0.60 ug/ml; for Fold enhanced, compound 2 0.98 ug/ml: enhancement of antibiotic by compound 2 at 0.98 ug/ml; for Fold enhanced, compound 3 0.30 ug/ml: enhancement of antibiotic by compound 3 at 0.30 ug/ml; for Fold enhanced, compound 4 0.75 ug/ml: enhancement of antibiotic by compound 4 at 0.75 ug/ml
Protocol: as §1
Strains: Multiresistant clinical isolates of S. aureus and S. epidermidis, Ten strains in each group.

[4] = treatment 0 and 2 hours, sampling 5 hours, sub-therapeutic doses as in Table 9, individual mice
[5] = antibiotic alone, median, ten strains

## CC(=O)NC[C@H]1CN(c2ccc(N3CCOCC3)c(F)c2)C(=O)O1 [Linezolid]
[1]; sub-therapeutic dose alone
  Effect on the infection / bacteria in mouse peritoneum: no effect on the infection
[1]; treatment 0 and 2 hours, sampling 5 hours, Linezolid 1 mg/ml 0.5 ml, Compound 3 0.1 mg/ml 0.5, combination Linezolid 2 mg/ml (0.25 ml) and compound 3 0.2 mg/ml (0.25 ml), individual mice
  score at sampling: 2 and 3 (2×)
[1]; [4]
  Cfu/ml peritoneum: 2.08E+09 Cfu/ml and 2.20E+09 Cfu/ml and 2.40E+09 Cfu/ml
  log (cfu/ml) peritoneum: 9.32 log (cfu/ml) and 9.34 log (cfu/ml) and 9.38 log (cfu/ml)

## CCN1CCN(C(=O)N[C@@H](C(=O)N[C@@H]2C(=O)N3[C@@H]2SC(C)(C)[C@@H]3C(=O)O)c2ccccc2)C(=O)C1=O [Piperacillin]
[2]; Escherichia coli, antibiotic alone, median, ten strains
  MIC: 16 µg/mL
[2]
  Fold enhanced, compound 1 1.0 ug/ml: 4 (4)
  Fold enhanced, compound 2 2.0 ug/ml: 4 (4)
  Fold enhanced, compound 3 0.6 ug/ml: 8

## CN(C)[C@@H]1C(=O)C(C(N)=O)=C(O)[C@@]2(O)C(=O)C3=C(O)c4c(O)cccc4[C@@](C)(O)[C@H]3C[C@@H]12 [Tetracyclin]
[3]
  MIC plus compound 1 0.60 ug/ml: 4 µg/mL
  MIC compound 2 0.98 ug/ml: 8 µg/mL
  MIC plus compound 3 0.30 ug/ml: 2 µg/mL
  MIC plus compound 4 0.75 ug/ml: 8 µg/mL
  MIC alone: 16 µg/mL
  Fold enhanced, compound 1 0.60 ug/ml: 2
  Fold enhanced, compound 2 0.98 ug/ml: 2
  Fold enhanced, compound 3 0.30 ug/ml: 4
  Fold enhanced, compound 4 0.75 ug/ml: 2
[2]; median
  MIC plus compound 1 1.0 ug/ml: 4 (4) μg/ml
  MIC plus compound 2 2.0 ug/ml: 4 (4) μg/ml
  MIC plus compound 3 0.6 ug/ml: 2 µg/mL
[2]; [5]
  MIC alone: 16 µg/mL
[2]
  Fold enhanced, compound 1 1.0 ug/ml: 4 (4)
  Fold enhanced, compound 2 2.0 ug/ml: 4 (4)
  Fold enhanced, compound 3 0.6 ug/ml: 8

## Dicloxacillin & Methicillin
[3]
  MIC plus compound 1 0.60 ug/ml: 4 µg/mL
  MIC compound 2 0.98 ug/ml: 4 µg/mL
  MIC plus compound 3 0.30 ug/ml: 2 µg/mL
  MIC plus compound 4 0.75 ug/ml: 4 µg/mL
  MIC alone: 64 µg/mL
  Fold enhanced, compound 1 0.60 ug/ml: 16
  Fold enhanced, compound 2 0.98 ug/ml: 16
  Fold enhanced, compound 3 0.30 ug/ml: 32
  Fold enhanced, compound 4 0.75 ug/ml: 16

## Gentamicin
[3]
  MIC plus compound 1 0.60 ug/ml: 4 µg/mL
  MIC compound 2 0.98 ug/ml: 4 µg/mL
  MIC plus compound 3 0.30 ug/ml: 2 µg/mL
  MIC plus compound 4 0.75 ug/ml: 4 µg/mL
  MIC alone: 8 µg/mL
  Fold enhanced, compound 1 0.60 ug/ml: 2
  Fold enhanced, compound 2 0.98 ug/ml: 2
  Fold enhanced, compound 3 0.30 ug/ml: 4
  Fold enhanced, compound 4 0.75 ug/ml: 2
[2]; median
  MIC plus compound 1 1.0 ug/ml: 4 µg/mL
  MIC plus compound 2 2.0 ug/ml: 4 µg/mL
  MIC plus compound 3 0.6 ug/ml: 2 µg/mL
[2]; [5]
  MIC alone: 8 µg/mL
[2]
  Fold enhanced, compound 1 1.0 ug/ml: 2
  Fold enhanced, compound 2 2.0 ug/ml: 2
  Fold enhanced, compound 3 0.6 ug/ml: 4
